Source: patent publication US3993749A, “Rapamycin and process of preparation” (Ayerst McKenna and Harrison Ltd., priority 1975, dated 1976)
≈ marks a conversion by molar mass, not a printed value.

Key:
fungi = details: prior art; cited from earlier work
C. albicans = details: prior art; cited from earlier work
[1] = prior art, route not given; cited from earlier work
bacteria = details: prior art; cited from earlier work
[2] = irritation, intradermal injection into a rabbit's ear; type: in vivo; details: 1% suspension (0.2 ml) in water containing […] polysorbate 80, intradermal
Description: (§1) A 1% suspension (0.2 ml) of rapamycin in water containing 1.5% polysorbate 80 (Tween 80), when injected intradermally into a rabbit's ear caused no irritation. Similarly, two drops of a 0.5% suspension applied to a rabbit's eye caused no irritation.

M. gypseum = assay: minimum inhibitory concentration of rapamycin; type: cell-based, Microsporum gypseum; details: Nannizzia gypsea
Description: (§2) The antifungal activity of this compound is demonstrable in standard tests used for this purpose, for example, in the tests described in "Antiseptics, Disinfectants, Fungicides and Sterilization", G. F. Reddish, Ed., 2nd ed., Lea and Febiger, Philadelphia, 1957 or by D. C. Grove and W. A. Randall in "Assay Methods of Antibiotics", Med. Encycl. Inc., New York 1955.
(§3) h. the minimum inhibitory concentration of rapamycin against various microorganism is listed below: […]

C. pseudtropicalis = assay: minimum inhibitory concentration of rapamycin; type: cell-based; details: read-out: minimum inhibitory concentration
Description: as §2, §3

C. parapsilosis = assay: minimum inhibitory concentration of rapamycin; type: cell-based; details: Lodderomyces parapsilosis
Description: as §2, §3

C. tropicalis = assay: minimum inhibitory concentration of rapamycin; type: cell-based; details: Candida tropicalis
Description: as §2, §3

C. stellatoidea = assay: minimum inhibitory concentration of rapamycin; type: cell-based; details: Candida albicans
Description: as §2, §3

[3] = tested on: Candida albicans (5 strains); assay: minimum inhibitory concentration of rapamycin; type: cell-based; details: against Candida albicans
Description: as §2, §3

C. catenulata = assay: minimum inhibitory concentration of rapamycin; type: cell-based
Description: as §2, §3

T. mentagrophytes = assay: minimum inhibitory concentration of rapamycin; type: cell-based; details: Trichophyton mentagrophytes, read-out: minimum inhibitory concentration
Description: as §2, §3

C. intermedia = assay: minimum inhibitory concentration of rapamycin; type: cell-based; details: Sungouiella intermedia
Description: as §2, §3

C. lipolytica = assay: minimum inhibitory concentration of rapamycin; type: cell-based; details: Yarrowia lipolytica
Description: as §2, §3

C. morrera = assay: minimum inhibitory concentration of rapamycin; type: cell-based
Description: as §2, §3

LD50 in mice = details: mouse, in vivo
[4] = irritation, drops applied to a rabbit's eye; type: in vivo; details: two drops of a 0.5% suspension
Description: as §1

solubility = type: physicochemical
C. albicans ATCC 11651 = assay: protection studies in mice infected with C. albicans; type: in vivo
Description: In protection studies, mice were infected by intravenous injection of C. albicans ATCC 11651. […] At this dose 50% of the mice were protected.

Candida strains = details: prior art; cited from earlier work
tumor = details: prior art; cited from earlier work
gram positive organisms = details: prior art; cited from earlier work

## Mycotrienin
fungi
  antifungal activity: low antifungal activity
C. albicans
  MIC against C. albicans: 5 µg/mL
[1]
  LD50 in mice: 15 mg/kg

## Resistaphylin
fungi
  antifungal activity: without any antifungal activity
bacteria
  antibacterial activity: antibacterial

## CO[C@H]1C[C@@H]2CC[C@@H](C)[C@@](O)(O2)C(=O)C(=O)N2CCCC[C@H]2C(=O)O[C@H]([C@H](C)C[C@@H]2CC[C@@H](O)[C@H](OC)C2)CC(=O)[C@H](C)/C=C(\C)[C@@H](O)[C@@H](OC)C(=O)[C@H](C)C[C@H](C)/C=C/C=C/C=C/1C [Rapamycin, rapamycin]
[2]
  irritation: no irritation
M. gypseum
  MIC: 12.5 µg/mL (≈ 13.7 µM)
C. pseudtropicalis
  MIC: > 5 µg/mL
C. parapsilosis
  MIC: < 0.1 µg/mL
C. tropicalis
  MIC: 0.1 µg/mL (≈ 0.109 µM)
C. stellatoidea
  MIC: < 0.1 µg/mL
[3]
  inhibitory activity: especially pronounced
C. catenulata
  MIC: < 0.1 µg/mL
T. mentagrophytes
  MIC: > 1000 µg/mL
C. intermedia
  MIC: < 0.1 µg/mL
C. lipolytica
  MIC: 2.5 µg/mL (≈ 2.73 µM)
C. morrera
  MIC: < 0.1 µg/mL
LD50 in mice; ip
  LD50: 597 ± 28.1 mg/kg
LD50 in mice; po
  LD50: > 2500 mg/kg
[4]
  irritation: no irritation
solubility; in ether, chloroform, acetone, methanol and dimethylformamide
  solubility: soluble
solubility; in hexane and petroleum ether
  solubility: very sparingly soluble
solubility; in water
  solubility: substantially insoluble
C. albicans ATCC 11651; 10 mg/kg orally
  mice survived: 4 out of 10
C. albicans ATCC 11651; 10 mg/kg s.c. at 1, 4 and 24 hours after i.v. infection
  mice protected: 50%
C. albicans ATCC 11651; 25 mg/kg orally
  protection: complete protection
C. albicans ATCC 11651; 25 mg/kg s.c.
  protection: complete protection

## Proticin
fungi
  antifungal activity: without any antifungal activity
bacteria
  antibacterial activity: antibacterial

## Trienine
Candida strains
  activity against Candida strains: only marginal activity
tumor
  antitumor activity: antitumor activity
Gram positive organisms
  activity against gram positive organisms: marked activity
